{"source": "PubChem BioAssay AID743476", "about": "(The Scripps Research Institute Molecular Screening Center, 2014)", "test_system": "CCHF-vOTU", "assay": "PubChem AID 743476", "details": "Recombinant CCHFV vOTU, PEP-AMC fluorescence cleavage, with PEP-AMC substrate, active compounds read high", "note": "Calls of active or inactive are those of the source. No rule for the calls is given here."}
{"compound": "NS(=O)(=O)c1ccc(NC(=O)COC(=O)c2ccc([N+](=O)[O-])s2)cc1", "values": [{"measurement": "inhibition", "setting": "Assay 1, at 8.31 µM", "result": 70.6, "unit": "%"}, {"measurement": "inhibition", "setting": "Assay 2, at 8.31 µM", "result": 24.6, "unit": "%"}, {"measurement": "inhibition", "setting": "Assay 3, at 16.62 µM", "result": 23.1, "unit": "%"}]}
{"compound": "COc1ccccc1NC(=O)COC(=O)c1ccc([N+](=O)[O-])s1", "values": [{"measurement": "inhibition", "setting": "Assay 1, at 9.94 µM", "result": "-1.05% (inactive)"}, {"measurement": "inhibition", "setting": "Assay 2, at 9.94 µM", "result": "9.34% (inactive)"}, {"measurement": "inhibition", "setting": "Assay 3, at 19.88 µM", "result": 20, "unit": "%"}]}
{"compound": "O=c1[nH]c(Nc2ccccc2)cc2cc(Br)ccc12", "values": [{"measurement": "inhibition", "setting": "Assay 2, at 1 µM", "result": 34.1, "unit": "%"}, {"measurement": "inhibition", "setting": "Assay 3, at 2 µM", "result": 42.6, "unit": "%"}]}
{"compound": "O=C1Cc2ccccc2C(=O)N1Cc1ccccc1", "values": [{"measurement": "inhibition", "setting": "Assay 1, at 1.28 µM", "result": 38.7, "unit": "%"}, {"measurement": "inhibition", "setting": "Assay 2, at 1.28 µM", "result": 50.3, "unit": "%"}]}
{"compound": "O=C(/C=C/c1ccc(O)cc1)c1ccc(NC2=C(N3CCCCC3)C(=O)c3ccccc3C2=O)cc1", "values": [{"measurement": "inhibition", "setting": "Assay 1, at 3.35 µM", "result": "14.3% (inactive)"}, {"measurement": "inhibition", "setting": "Assay 2, at 3.35 µM", "result": "16.3% (inactive)"}, {"measurement": "inhibition", "setting": "Assay 3, at 6.7 µM", "result": 33.6, "unit": "%"}]}
{"compound": "Cc1ccccc1-c1cc2c(nn1)-c1ccccc1C2=O", "values": [{"measurement": "inhibition", "setting": "Assay 1, at 0.46 µM", "result": 27.6, "unit": "%"}, {"measurement": "inhibition", "setting": "Assay 2, at 0.46 µM", "result": 24.5, "unit": "%"}]}
{"compound": "COc1ccc2noc3c2c1C(=O)c1ccccc1-3", "values": [{"measurement": "inhibition", "setting": "Assay 1, at 3.08 µM", "result": "16.5% (inactive)"}, {"measurement": "inhibition", "setting": "Assay 2, at 3.08 µM", "result": "15.2% (inactive)"}, {"measurement": "inhibition", "setting": "Assay 3, at 6.16 µM", "result": 64.3, "unit": "%"}]}
{"compound": "COc1cc(NCCCC(C)N)c2ncccc2c1", "note": "(configuration not stated)", "values": [{"measurement": "inhibition", "setting": "Assay 1, at 2.52 µM", "result": 25.6, "unit": "%"}, {"measurement": "inhibition", "setting": "Assay 2, at 2.52 µM", "result": "0.7% (inactive)"}, {"measurement": "inhibition", "setting": "Assay 3, at 5.04 µM", "result": "-1.2% (inactive)"}]}
{"compound": "O=S(=O)(Nc1cc2nc3ccccc3nc2n1Cc1ccccc1)c1ccc(Cl)cc1", "values": [{"measurement": "inhibition", "setting": "Assay 1, at 2.57 µM", "result": 72.3, "unit": "%"}, {"measurement": "inhibition", "setting": "Assay 2, at 2.57 µM", "result": "-112% (inactive)"}, {"measurement": "inhibition", "setting": "Assay 3, at 5.14 µM", "result": "47.9% (inactive)"}]}
{"compound": "O=C(OCc1nnc(-c2ccccc2)o1)c1ccc([N+](=O)[O-])s1", "values": [{"measurement": "inhibition", "setting": "Assay 1, at 7.52 µM", "result": "3.79% (inactive)"}, {"measurement": "inhibition", "setting": "Assay 2, at 7.52 µM", "result": "-3.16% (inactive)"}, {"measurement": "inhibition", "setting": "Assay 3, at 15.04 µM", "result": 25, "unit": "%"}]}
{"compound": "Cc1ccc2c(c1C)-c1c(ccc(C)c1C)C(=O)C2=O", "values": [{"measurement": "inhibition", "setting": "Assay 1, at 7.79 µM", "result": "-37.1% (inactive)"}, {"measurement": "inhibition", "setting": "Assay 2, at 7.79 µM", "result": "18% (inactive)"}, {"measurement": "inhibition", "setting": "Assay 3, at 15.58 µM", "result": 38.4, "unit": "%"}]}
{"compound": "COc1cc(NC(=O)COC(=O)c2ccc([N+](=O)[O-])s2)cc(OC)c1OC", "values": [{"measurement": "inhibition", "setting": "Assay 1, at 6.6 µM", "result": "7.4% (inactive)"}, {"measurement": "inhibition", "setting": "Assay 2, at 6.6 µM", "result": "4.53% (inactive)"}, {"measurement": "inhibition", "setting": "Assay 3, at 13.2 µM", "result": "11.9% (inactive)"}]}
{"compound": "CC1CCCC(NC(=O)COC(=O)c2ccc([N+](=O)[O-])s2)C1C", "note": "(configuration not stated)", "values": [{"measurement": "inhibition", "setting": "Assay 1, at 9.22 µM", "result": 37.2, "unit": "%"}, {"measurement": "inhibition", "setting": "Assay 2, at 9.22 µM", "result": "8.38% (inactive)"}, {"measurement": "inhibition", "setting": "Assay 3, at 18.44 µM", "result": "13.5% (inactive)"}]}
{"compound": "O=C(COC(=O)c1ccc([N+](=O)[O-])s1)NCc1ccc(F)cc1", "values": [{"measurement": "inhibition", "setting": "Assay 1, at 8.08 µM", "result": "-23.4% (inactive)"}, {"measurement": "inhibition", "setting": "Assay 2, at 8.08 µM", "result": "7.84% (inactive)"}, {"measurement": "inhibition", "setting": "Assay 3, at 2.56 µM", "result": "11.4% (inactive)"}]}
{"compound": "Cc1cnc(C2OCCO2)c2cccc(N)c12", "values": [{"measurement": "inhibition", "setting": "Assay 1, at 2.56 µM", "result": "16.2% (inactive)"}, {"measurement": "inhibition", "setting": "Assay 2, at 2.56 µM", "result": "0.6% (inactive)"}, {"measurement": "inhibition", "setting": "Assay 3, at 5.12 µM", "result": "1% (inactive)"}]}
{"compound": "O=C1Cc2ccccc2C(=O)N1CCc1ccccc1", "values": [{"measurement": "inhibition", "setting": "Assay 1, at 1.14 µM", "result": "12.7% (inactive)"}, {"measurement": "inhibition", "setting": "Assay 2, at 1.14 µM", "result": 57.5, "unit": "%"}]}
{"compound": "Cc1c(Cl)cnc(NC(=O)COC(=O)c2ccc([N+](=O)[O-])s2)c1Cl", "values": [{"measurement": "inhibition", "setting": "Assay 1, at 7.08 µM", "result": "9.06% (inactive)"}, {"measurement": "inhibition", "setting": "Assay 2, at 7.08 µM", "result": "5.86% (inactive)"}, {"measurement": "inhibition", "setting": "Assay 3, at 14.16 µM", "result": "14.2% (inactive)"}]}
{"compound": "CCOC(=O)N=Nc1c2ccccc2c2nc3no[nH]c3nc12", "values": [{"measurement": "inhibition", "setting": "Assay 1, at 2.35 µM", "result": "8.81% (inactive)"}, {"measurement": "inhibition", "setting": "Assay 2, at 2.35 µM", "result": "13.6% (inactive)"}, {"measurement": "inhibition", "setting": "Assay 3, at 4.7 µM", "result": 25.3, "unit": "%"}]}
{"compound": "O=C(COC(=O)c1ccc([N+](=O)[O-])s1)Nc1ccccc1", "values": [{"measurement": "inhibition", "setting": "Assay 2, at 10.31 µM", "result": "8.51% (inactive)"}, {"measurement": "inhibition", "setting": "Assay 3, at 20.62 µM", "result": "4.9% (inactive)"}]}
{"compound": "NS(=O)(=O)c1ccc(NC2=CC(=O)C(=O)c3ccccc32)cc1", "values": [{"measurement": "inhibition", "setting": "Assay 1, at 4.85 µM", "result": "6.01% (inactive)"}, {"measurement": "inhibition", "setting": "Assay 2, at 4.85 µM", "result": 30.6, "unit": "%"}]}
{"compound": "O=C(O)CSc1cc(NS(=O)(=O)c2cccc([N+](=O)[O-])c2)c2ccccc2c1O", "values": [{"measurement": "inhibition", "setting": "Assay 1, at 2.44 µM", "result": "-7.65% (inactive)"}, {"measurement": "inhibition", "setting": "Assay 2, at 2.44 µM", "result": "5.22% (inactive)"}, {"measurement": "inhibition", "setting": "Assay 3, at 4.88 µM", "result": "13.1% (inactive)"}]}
{"compound": "Cn1nc(-c2ccccn2)nc2c(=O)n(C)c(=O)nc1-2", "values": [{"measurement": "inhibition", "setting": "Assay 1, at 0.37 µM", "result": 63.3, "unit": "%"}, {"measurement": "inhibition", "setting": "Assay 2, at 0.37 µM", "result": 56.2, "unit": "%"}]}
{"compound": "O=C(COC(=O)c1ccc([N+](=O)[O-])s1)Nc1ccc(F)cc1", "values": [{"measurement": "inhibition", "setting": "Assay 1, at 7.8 µM", "result": "9.26% (inactive)"}, {"measurement": "inhibition", "setting": "Assay 2, at 7.8 µM", "result": "9.2% (inactive)"}, {"measurement": "inhibition", "setting": "Assay 3, at 15.6 µM", "result": "17.4% (inactive)"}]}
